# How the values were obtained:
# [1] = Cholecalciferol concentration of test solution by normal phase liquid chromatography (stability of formulation); type: physicochemical
# Procedure: To confirm the cholecalciferol concentration present and enable accurate exposure calculations when the test solution was applied to the stoats, a sub-sample (approximately 20 ml) of this solution was taken for analysis. Cholecalciferol concentration was determined by taking a sample of liquid which was warmed, mixed and 0.2 g weighed into a volumetric flask 30 ml of toluene was added, and this solution was sonicated without heating and made up to volume. The solution was diluted with hexane/isopropyl alcohol, filtered and analysed against an internal standard by normal phase liquid chromatography.
# The test solution was analysed as containing 30% cholecalciferol with an uncertainty of 5%. This was lower than the nominal 40% cholecalciferol in the solution indicated by the analysis carried out the day after the solution was prepared. The assay was carried out on a sub-sample of solution taken 7 days after preparation, and also following the extraction of 6×1.5 ml aliquots of the solution for application to stoats.
# This may mostly have occurred on exposure to air when aliquots of solution were drawn from the container for application to the stoats. Cholecalciferol preparations are sensitive to light and exposure to air, with oxidation and inactivation occurring over a few days in the presence of moist air. However, it is noted that even at a 30% concentration, the solution contained sufficient cholecalciferol to deliver an effective lethal dose to all six stoats in 1.5 ml.
# Weasel = assay: Dermal application of cholecalciferol, Example 1 study (Table 1); type: in vivo; conditions: 1.5 ml of 40% cholecalciferol in absolute alcohol, topical
# Procedure: (§1) Two formulations of the invention were prepared both containing cholecalciferol in solution with absolute alcohol. One of the formulations contained cholecalciferol in an amount of 20% w/v. The other formulation contained cholecalciferol in an amount of 40% w/v. The formulation was topically applied to several animal pest species in varying amounts and the animals were studied.
# Ferret = assay: as above; type: in vivo; conditions: 2.0 ml of 40% cholecalciferol in absolute alcohol, topical; animal 902 g
# Procedure: as §1
# Bush Rat (Rattus rattus) = assay: as above; type: in vivo; conditions: 1.0 ml of 20% cholecalciferol in absolute alcohol, topical; animal weight unknown
# Procedure: as §1
# [2] = test system: Lab Rat (Rattus norvegicus); assay: as above; type: in vivo; conditions: 0.5 ml of 20% cholecalciferol in absolute alcohol, topical; animal weight unknown
# Procedure: as §1
# Hedgehog = assay: as above; type: in vivo; conditions: 1.5 ml of 20% cholecalciferol in absolute alcohol, topical; animal 515 g
# Procedure: as §1
# Rabbit = assay: as above; type: in vivo; conditions: 2.0 ml of 20% cholecalciferol in absolute alcohol, topical; animal 2.6 kg
# Procedure: as §1
smiles,measurement,setting,value
C=C1CC[C@H](O)C/C1=C/C=C1\CCC[C@]2(C)[C@@H]([C@H](C)CCCC(C)C)CC[C@@H]12 [cholecalciferol],cholecalciferol concentration of test solution (nominal),"[1]; analysis carried out the day after the solution was prepared, absolute alcohol",40%
same,change of cholecalciferol concentration in test solution,[1]; during the 7 days from preparation to application,slight decline
same,cholecalciferol concentration of test solution,"[1]; sub-sample taken 7 days after preparation, after extraction of aliquots, uncertainty of 5%, absolute alcohol",30%
same,Observations: time to death,Weasel; animal 116 g,within 43 hours
same,Observations: time to death,Weasel; animal 139 g,within 36 hours
same,Observations: time to death,Ferret,within 48 hours
same,Observations: time to death,Bush Rat (Rattus rattus),within 40 hours
same,Observations: time to death,[2],within 72 hours
same,Observations: time to death,Hedgehog,within 25 hours
same,Observations: time to death,Rabbit,within 2 days
